ChEMBL document CHEMBL1146023, “Similar structure-activity relationships of quinoline derivatives for antiprion and antimalarial effects” (J Med Chem, 2006)
pEC50, pIC50: −log10 of the molar value. Activity calls are given as the source filed them. No cut-off for these calls is given here.

Key:
ScN2a [1] = assay: Inhibition of scrapie prion formation in mouse ScN2a cell line relative to control; type: functional, cell-based
ScN2a [2] = assay: Inhibition of scrapie prion formation in mouse ScN2a cell line; type: functional
ScN2a [3] = assay: Toxicity against ScN2a cell line; type: cell-based; conditions: mouse
Plasmodium falciparum [4] = assay: Antimalarial activity against chloroquine-resistant Plasmodium falciparum FcB1 at 100 nM; type: functional
ScN2a [5] = assay: Selectivity index, toxicity against ScN2a cell line/EC50 for scrapie prion formation in mouse ScN2a cell line; type: functional
[6] = Toxicity against MRC5 cell line; type: cell-based; conditions: human, MRC5 cells
ScN2a [7] = assay: Toxicity against ScN2a cell line at 10 uM; type: cell-based; conditions: mouse
MRC5 = assay: Selectivity index, toxicity against MRC5 cell line/EC50 for scrapie prion formation in mouse ScN2a cell line; type: functional
Plasmodium falciparum [8] = assay: microbe, parasite or virus in culture; conditions: FcB1
ScN2a [9] = assay: Inhibition of scrapie prion formation in mouse ScN2a cell line at 200 nM; type: functional, cell-based

Row | Compound | pEC50 (ScN2a [1]) | Activity (ScN2a [2]) | Activity (ScN2a [3]) | inhibition at 0.1 µM (Plasmodium falciparum [4]) | Selectivity index (ScN2a [5]) | CC50 [6] | Activity (ScN2a [7]) | Selectivity index (MRC5) | pIC50 (Plasmodium falciparum [8]) | Activity (ScN2a [9])
1 | O=C(NCCCN1CCN(CCCNc2ccnc3cc(Cl)ccc23)CC1)C1c2ccccc2Oc2ccccc21 | 7.00 | 300 nM | 750 nM | 11% | 7.5 | – | – | – | – | –
2 | CCN(CC)CCCC(C)Nc1ccnc2cc(Cl)ccc12 (stereo unspecified) [CHLOROQUINE] | 5.40 | 10000 nM | – | – | – | 50000 nM | Non-toxic | – | – | –
3 | O=S(=O)(NCCCN1CCN(CCCNc2ccnc3cc(Cl)ccc23)CC1)c1ccc(Cl)cc1 | 6.60 | 500 nM | 2000 nM | 26% | 8 | – | – | – | – | –
4 | O=C(NCCCN1CCN(CCCNc2ccnc3cc(Cl)ccc23)CC1)c1cccc(Oc2ccccc2)c1 | 6.70 | 300 nM | 750 nM | – | 3.75 | 5000 nM | – | 25 | – | –
5 | COc1ccc(C(=O)NCCCN2CCN(CCCNc3ccnc4cc(Cl)ccc34)CC2)cc1 | 7.00 | 300 nM | 3000 nM | – | 30 | 4000 nM | – | 40 | – | –
6 | CC(C)(C)c1ccc(C(=O)NCCCN2CCN(CCCNc3ccnc4cc(Cl)ccc34)CC2)cc1 | 7.00 | 200 nM | 1000 nM | – | 10 | – | – | – | 7.26 | Active
7 | O=C(c1ccc2ccccc2c1)N(CCCN1CCN(CCCNc2ccnc3cc(Cl)ccc23)CC1)CC1CC1 | 7.12 | 300 nM | 2000 nM | 23% | 26.67 | – | – | – | – | –
8 | O=C(NCCCN1CCN(CCCNc2ccnc3cc(Cl)ccc23)CC1)c1ccncc1 | 5.52 | 5000 nM | – | 1% | – | – | Non-toxic | – | – | –
